Results: article PMC5533769, “A cell-based high-throughput screening assay system for inhibitor compounds of antigen presentation by HLA class II molecule” (Scientific Reports, 2017)
“Also recorded” adds a separate entry of the source. Where two headings read alike, the source gives them in different places.

How the values were obtained:
DR15 (DRB1*15:01) [1] = biological target: T1, DR15 (DRB1*15:01) (Homo sapiens, UniProt P01903+P01911, OTHER:DRA*01:01ANDEACHDRB1VECTORSWEREINTRODUCEDINTOTHECELLSAT1:1RATIO/OTHER:MBP83-99TODR15(DRB1*15:01)); experiment: 96-well plate peptide binding assay, DR15-expressing 3T3 cells, SA-β-gal/4MUG; conditions: live DR15-expressing 3T3, 96-well, 4MUG, 8-h incubation, parental binding subtracted
T1 construct: The open reading frame for DRA or DRB1 were flanked with Xho 1 and EcoR1 sites; expressed in transfected cells
Experimental: (§1) Figure 3 Detection and screening system of antigen peptide binding to HLA on 3T3 cells in 96 well plate. (A) Scheme of the detection of HLA-bound peptides on cells in 96 well plates. HLA expressing cells are incubated with biotinylated antigen peptides, and bound peptides are probed with SA-β-gal, followed by enzyme reaction with chromogenic (ONPG) or fluorogenic substrate (4MUG). (B) Detection of HLA-bound peptides on 3T3 cells using fluorogenic substrate (4MUG) in 96 well plates. Two 96-well plates of DR15-expressing cells were incubated with MBP83-99 for 6 h, fixed with glutaraldehyde, and subjected to blocking with a blocking solution as detailed in the methods section. Thereafter, biotinylated peptides in one plate were probed with low concentration of SA-β-gal (3,000-fold dilution) and detected by using 4MUG. The other plate was analysed using a chromogenic substrate (ONPG) in Supplementary Fig. 3. (C) Time and concentration dependence of MBP83-99 binding to DR15-expressing 3T3 cells. The assay was conducted as in (B).
(§2) Unless otherwise described, the assay was conducted as follows. […] The reaction was stopped by addition of 100 µL of 0.5 M Na2CO3, and fluorescence intensity (Ex: 365 nm, Em: 450 nm) was measured by using a plate reader (Spectra Max plus, Molecular Devices, Sunnyvale, CA, USA). Wells devoid of cells and incubation with biotinylated peptide, but otherwise treated by using the same experimental procedure, were set as blank, and the mean fluorescence value for the wells was subtracted. The apparent Kd values for the binding of MBP83-99 and DR1 (DRB1*01:01) or DR15 (DRB1*15:01) was calculated by double reciprocal plot (1/[P-HLA] = Kd/[HLA]total [P] + 1/[HLA]total; where P represents peptide) or Scatchard plot ([P-HLA]/[P] = [HLA]total/Kd − [P-HLA]/Kd) after subtracting values for HLA-independent peptide binding (parental 3T3 cells) from the respective cells in a peptide concentration dependency experiment. […]

DR15 (DRB1*15:01) [2] = biological target: T2, DR15 (DRB1*15:01) (Homo sapiens, UniProt P01903+P01911); experiment: as above; conditions: parental vs. DR15-expressing 3T3 cells; MBP83-99 5 µM
T2 construct: The open reading frame for DRA or DRB1 were flanked with Xho 1 and EcoR1 sites; expressed in transfected cells
Experimental: as §1, §2

DR1 (DRB1*01:01) [3] = biological target: T3, DR1 (DRB1*01:01) (Homo sapiens, UniProt P01903+P01911, A100R/D57E/F55L/F60I/F76Y/I96L/L162R/M171V/P40L/Q125E/R42F/V115G/Y59C); experiment: 96-well plate peptide binding assay, DR1-expressing 3T3 cells, SA-β-gal/4MUG; conditions: for Kd: live DR1-expressing 3T3, 96-well, 4MUG, parental binding subtracted
T3 construct: The open reading frame for DRA or DRB1 were flanked with Xho 1 and EcoR1 sites; expressed in transfected cells

parental 3T3 cells [4] = experiment: FACS binding of biotinylated peptide to parental 3T3 cells; set-up: species or system murine; conditions: SA-PE, parental 3T3, no HLA-DR, biotinylated peptide 30 µM overnight
[5] = test system: DRB1 molecules (almost all genotypes); conditions: ref [25]; cited from earlier work
[6] = biological target: T4, HLA-DR1 (DRA*01:01/DRB1*01:01) (Homo sapiens, UniProt P01903+P01911, A100R/D57E/F55L/F60I/F76Y/I96L/L162R/M171V/P40L/Q125E/R42F/V115G/Y59C); experiment: FACS binding of biotinylated peptide to HLA-DR1 on HEK293T cells; conditions: SA-PE, biotinylated peptide 30 µM, >5 h, 3 to 6 independent experiments
[7] = test system: HLA-DR (DRB1*01:01, DRB1*04:05, DRB1*09:01, DRB1*15:01); experiment: FACS binding of biotinylated peptide to panel of HLA-DR on HEK293T cells; set-up: species or system human; conditions: FACS, SA-PE; […]; biotinylated peptide 30 µM, >5 h
[8] = biological target: T4, HLA-DR1 (DRA*01:01/DRB1*01:01); experiment: FACS binding of biotinylated peptide to HLA-DR1 on stable 3T3 cells; conditions: SA-PE, stable 3T3, DRA*01:01 + DRB1*01:01, biotinylated peptide 30 µM overnight
[9] = test system: HLA-DR (DRB1*01:01, DRB1*04:05, DRB1*09:01, DRB1*15:01); experiment: FACS binding of biotinylated peptide to panel of HLA-DR on stable 3T3 cells; set-up: species or system human; conditions: Supplemental Fig. 1 vs. Supplemental Fig. 2
parental 3T3 cells [10] = experiment: 96-well plate peptide binding assay, parental 3T3 cells, SA-β-gal/4MUG; set-up: species or system murine; conditions: SA-β-gal 3,000-fold
DR15 (DRB1*15:01) [11] = biological target: T2, DR15 (DRB1*15:01); experiment: 96-well competition assay: inhibition of MBP83-99 loading to DR15-expressing 3T3 cells; format: binding; conditions: DR15-expressing 3T3; 1 h pre-incubation, then MBP83-99 6 h; 4MUG
DR1 (DRB1*01:01) [12] = biological target: T3, DR1 (DRB1*01:01); experiment: 96-well competition assay: inhibition of MBP83-99 loading to DR1-expressing 3T3 cells; format: binding; conditions: DR1-expressing 3T3; 1 h pre-incubation, then MBP83-99 (5 µM) 6 h; 4MUG
DR4 (DRB1*04:05) = DR4 (DRB1*04:05) (Homo sapiens, UniProt P01903+P01911, A100R/A169T/D86S/F76Y/I96L/K127E/L162R/M171V/N62H/P40V/Q125Y/R42H/S133A/S149N/S66Y/V115G/V209L/W38E); conditions: ref [24]; cited from earlier work
Experimental: To determine the genotype specificity and relative affinity of known epitope peptides, MBP83-99 and BiP336-355 peptide loading assays were performed on cells expressing DRA*01:01 plus various HLA-DRB1 (Supplemental Fig. 1A). […] However, the extent of peptide loading, which is evaluated by the mean fluorescence intensity (MFI), was the highes ...

[13] = biological target: HLA-DR4 (DRA*01:01/DRB1*04:05) (Homo sapiens, UniProt P01903+P01911, A100R/A169T/D86S/F76Y/I96L/K127E/L162R/M171V/N62H/P40V/Q125Y/R42H/S133A/S149N/S66Y/V115G/V209L/W38E); experiment: FACS binding of biotinylated peptide to HLA-DR4 on HEK293T cells
[14] = test system: HEK293T cells (non-transfected); format: binding; conditions: FACS, SA-PE, biotinylated peptide 30 µM, >5 h

CC[C@H](C)[C@H](NC(=O)[C@H](CC(N)=O)NC(=O)[C@H](CCCCN)NC(=O)[C@H](Cc1ccccc1)NC(=O)[C@H](Cc1ccccc1)NC(=O)[C@H](Cc1c[nH]cn1)NC(=O)[C@@H](NC(=O)[C@@H](NC(=O)[C@@H]1CCCN1C(=O)[C@H](CC(N)=O)NC(=O)[C@@H](N)CCC(=O)O)C(C)C)C(C)C)C(=O)N[C@H](C(=O)N[C@H](C(=O)N1CCC[C@H]1C(=O)N[C@@H](CCCNC(=N)N)C(=O)N[C@H](C(=O)N1CCC[C@H]1C(=O)O)[C@@H](C)O)[C@@H](C)O)C(C)C [MBP83-99, myelin basic protein (MBP) 83–99]
Kd (DR15 (DRB1*15:01) [1]; Scatchard plot, R² = 0.8781, read-out: apparent Kd, DR15, Scatchard plot): 3 µM
Kd (DR15 (DRB1*15:01) [1]; double reciprocal plot, R² = 0.9378, read-out: apparent Kd, DR15, double reciprocal plot): 2 µM
HLA-independent binding share of apparent signal, DR15 cells (DR15 (DRB1*15:01) [2]): < 10%
Kd (DR1 (DRB1*01:01) [3]; Scatchard plot, R² = 0.8216, read-out: apparent Kd, DR1, Scatchard plot): 14 µM
Kd (DR1 (DRB1*01:01) [3]; double reciprocal plot, R² = 0.99, read-out: apparent Kd, DR1, double reciprocal plot): 10 µM
HLA-independent binding share of apparent signal, DR1 cells (DR1 (DRB1*01:01) [3]; parental vs. DR1-expressing 3T3 cells, MBP83-99 5 µM): < 30%

ACPKYVKQNTLKLATG [HA305-320, influenza hemagglutinin (HA) 305–320, biotinylated influenza hemagglutinin peptide]
Peptide binding to parental 3T3 cells (HLA-independent) (parental 3T3 cells [4]): significant degree of apparent binding; also recorded: bound to the cell surface independently of HLA, especially avidly in 3T3 cells
Binding to DRB1 genotypes [5]: bind to almost all genotypes of DRB1 molecules; also recorded: binds to every genotype of HLA-DRs
Peptide binding (MFI), HLA-DR1 [6]: the highest level
Peptide binding across HLA-DR genotypes [7]: did increase in any genotypes of DRB1-expressing cells
Peptide binding, DR1 on 3T3 [8]: increased in cells expressing HLA, especially DR1; also recorded: could be loaded onto HLA to a sufficient level
Binding intensity in 3T3 compared with HEK293T cells [9]: far less than those in HEK293T cells
Peptide binding to parental 3T3 cells, 96-well, and after maximum (DR1 (DRB1*01:01) [3]): gradually decreased
HLA-independent binding share of entire signal, DR1 cells (DR1 (DRB1*01:01) [3]; […], HA305-320, obtained at 8 h): exceeded 80%
Time to maximum binding, DR1 (DR1 (DRB1*01:01) [3]; […], then gradually decreased): 8 h
Time to almost plateau loading (Discussion) (DR1 (DRB1*01:01) [3]; cell-based 96-well assay, […]): ~8 h
Peptide loading, parental 3T3, 96-well (parental 3T3 cells [10]): a significant amount of HA305-320 binding was observed in the parental cells

LMAKARQKVLMPSTMLP [scCLIP, scramble peptide (scCLIP), scramble version of the CLIP peptide]
Inhibitory effect on MBP83-99 loading, DR15 (DR15 (DRB1*15:01) [11]): no inhibitory effect
Inhibitory effect on MBP83-99 loading, DR1 (DR1 (DRB1*01:01) [12]): no inhibitory effect

RSTMKPVQKVLEDSDLKKSD [BiP336-355, immunoglobulin binding protein (BiP) 336–355, biotinylated self-antigen peptide of BiP]
Presentation by DR4 (DR4 (DRB1*04:05)): self-antigen presented by DR4 (DRB1*04:05)
Peptide binding (MFI), HLA-DR4, extended incubation ([13]; HEK293T, DRB1*04:05, incubation extended to 20 h, data not shown): could not observe a further increase
Peptide binding (MFI), HLA-DR4 ([13]; SA-PE, HEK293T transiently expressing DRA*01:01 + DRB1*04:05, biotinylated peptide 30 µM, >5 h): could bind to DR4-expressing HEK293T cells, although very slightly
Peptide binding across HLA-DR genotypes [7]: not to other DR-expressing cells
Peptide binding to control cells [14]: No loading of either peptide was observed
